Source: patent publication US10300155B2, “Alpha-synuclein ligands” (Washington University, priority 2015, dated 2019)
Values joined by “and” are separate entries in the source; they are usually repeats but may differ in a detail not shown here. Equal entries are not always repeated. Where two headings read alike, the source gives them in different places.

Molecular target: T1, α-synuclein fibrils (Homo sapiens, UniProt P37840)
T1 construct: made in house; host or cells: E. coli BL21(DE3)RIL
Experiment: ThT competitive assay for α-synuclein fibrils (Table 1)
Format: binding
Conditions: for EC50: α-synuclein fibrils
Experimental: Upon binding to amyloid fibrils, a peak at approximately 440 nm becomes dominant with the fluorescent emission maximum shifted to 480 nm. This is accompanied by a strong enhancement of the fluorescence.
α-Synuclein recombinant protein was produced in E. coli. […] Freshly transformed BL21 colonies were inoculated into 2 L baffled flasks containing 250 mL sterilized TB (1.2% bactotryptone, 2.4% yeast extract, 0.4% glycerol, 0.17 M KH2PO4, 0.72 M K2HPO4) with 50 μg/ml ampicillin, and incubated overnight at 37° C. with shaking.
To determine the concentration of fibrils, the reaction mixture (100 μL) was centrifuged at 18,000×g for 10 minutes to separate fibrils from monomer. The α-synuclein monomer and other soluble proteins in the supernatant were removed, and the fibril pellet was resuspended in 100 μL solution of Tris-HCl (20 mM) and NaCl (100 mM). This fibril suspension was used in a bicinchoninic acid (BCA) protein assay along with a bovine serum albumin (BSA) standard curve to determine the concentration of fibrils in the 72 hour fibril reaction mixture.
To prepare the fibrils for performing binding assays, the fibril reaction mixture prepared above was centrifuged at 18,000×g for 10 minutes.
Once the ThT-α-synuclein saturation binding curve and dissociation constant (Kd) were determined the competitive assay for determining the binding affinity of various test compounds was conducted. […] The mixture was incubated at room temperature for 60 minutes on the shaking plate. The fluorescent intensity for each cell was measured by the fluorescence reader at λex and λem. The Ki value for each compound was calculated by the corresponding inhibition curve.
The Ki values were derived from the EC50 values using the Cheng-Prusoff equation: Ki=EC50/(1+[radioligand]/Kd). See FIGS. 17.1-31.2 for the inhibition curves for each compound in the ThioT competitive binding assay.

[1] = average, read-out: Ki (nM) α-syn (avg)
[2] = individual determinations, read-out: Ki (nM) α-syn
[3] = average, read-out: EC50 (nM) EC50 (avg)
[4] = individual determinations, read-out: EC50 (nM) EC50

| Compound | Ki [1] | Ki [2] | EC50 [3] | EC50 [4] |
| --- | --- | --- | --- | --- |
| O=[N+]([O-])c1ccc2nc(/C=C/c3cnccn3)ccc2c1 [TZ-36-20] | 926 nM | 926 nM | 2420 nM | 2420 nM |
| Fc1ccc2nc(/C=C/c3cnccn3)ccc2c1 [TZ-36-22] | 109 nM | 109 nM | 286 nM | 286 nM |
| Brc1ccc2nc(/C=C/c3cnccn3)ccc2c1 [TZ-36-24] | 453 nM | 453 nM | 1190 nM | 1190 nM |
| COc1ccc2nc(/C=C/c3ccnc(F)c3)ccc2c1 [TZ-36-26-2T] | 434 nM |  | 1140 nM |  |
| COc1ccc2nc(/C=C/c3ccsc3)ccc2c1 [TZ-36-30] | 122 nM | 122 nM | 320 nM | 320 nM |
| COc1ccc2nc(/C=C/c3ccccn3)ccc2c1 [TZ-36-34] | 193 nM | 193 nM | 504 nM | 504 nM |
| COc1ccc2nc(/C=C/c3ccc(Cl)nc3)ccc2c1 [TZ-36-38] | 39 nM | 31 nM and 47 nM | 101 nM | 80 nM and 122 nM |
| COc1ccc2nc(/C=C/c3cccnc3Cl)ccc2c1 [TZ-36-40] | 62 nM | 62 nM | 163 nM | 163 nM |
| COc1ccc2nc(/C=C/c3ccnc(Cl)c3)ccc2c1 [TZ-36-42] | 54 nM | 52 nM and 56 nM | 140 nM | 136 nM and 145 nM |
